Measured values reported in US11826351B2, “Compounds useful as kinase inhibitors” (Loxo Oncology, Inc., priority 2015, dated 2023).
Where two headings read alike, the source gives them in different places.

Key:
Recombinant EGFR = target: T1, Recombinant EGFR (Homo sapiens, UniProt P00533); test: EGFR binding affinity (LanthaScreen TR-FRET); details: Kinase Tracer 199, 5 h incubation
T1 construct: purchased Invitrogen
In short: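 Compounds were titrated against recombinant EGFR and binding was followed by LanthaScreen time-resolved FRET.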

[1] = target: T2, Recombinant BTK^C481S kinase (Homo sapiens, UniProt Q06187, C481S); test: BTK C481S binding affinity (LanthaScreen TR-FRET); details: Kinase Tracer 236, 5 h incubation
T2 construct: purchased SignalChem
In short: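 BTK C481S tracer-displacement TR-FRET: 5 nM His-tagged kinase, 2 nM Eu anti-His antibody and 30 nM Kinase Tracer 236 incubated with titrated inhibitor for 5 h in Kinase Buffer A. Read at 340 nm excitation, 615/665 nm emission; IC50 from variable-slope log[inhibitor]–response fit.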

[2] = tested on: OCI-Ly10 human DLBCL cells; test: OCI-Ly10 anti-proliferative activity (Resazurin); assay type: cell-based; details: read-out: Proliferation Assay OCI-Ly10-20% FBS
In short: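 A separate untreated plate gave the Day 0 reading, measured by Resazurin fluorescence at 590 nm after 5 h. The average Day 0 value was subtracted from each treated well, and results were expressed as percent of DMSO control. IC50 values came from a log[Inhibitor] vs response Variable Slope fit in Graphpad prism.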

[3] = target: T3, Recombinant BTK^WT kinase (Homo sapiens, UniProt Q06187); test: BTK WT binding affinity (LanthaScreen TR-FRET); details: Kinase Tracer 236, 5 h incubation
T3 construct: purchased Invitrogen
In short: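 IC50 obtained by variable-slope fit of TR-FRET signal (ex 340 nm; em 615 and 665 nm) versus inhibitor concentration. Reaction held for 5 h in LanthaScreen Kinase Buffer A with 2.5 nM His-tagged BTK^WT, 15 nM Kinase Tracer 236 and 2 nM Eu anti-His antibody.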

[4] = Homo sapiens, OCI-Ly10, 72 h, OCI-Ly10 cells, 72 h compound treatment, Resazurin

T1 sequence (P00533 25-1210): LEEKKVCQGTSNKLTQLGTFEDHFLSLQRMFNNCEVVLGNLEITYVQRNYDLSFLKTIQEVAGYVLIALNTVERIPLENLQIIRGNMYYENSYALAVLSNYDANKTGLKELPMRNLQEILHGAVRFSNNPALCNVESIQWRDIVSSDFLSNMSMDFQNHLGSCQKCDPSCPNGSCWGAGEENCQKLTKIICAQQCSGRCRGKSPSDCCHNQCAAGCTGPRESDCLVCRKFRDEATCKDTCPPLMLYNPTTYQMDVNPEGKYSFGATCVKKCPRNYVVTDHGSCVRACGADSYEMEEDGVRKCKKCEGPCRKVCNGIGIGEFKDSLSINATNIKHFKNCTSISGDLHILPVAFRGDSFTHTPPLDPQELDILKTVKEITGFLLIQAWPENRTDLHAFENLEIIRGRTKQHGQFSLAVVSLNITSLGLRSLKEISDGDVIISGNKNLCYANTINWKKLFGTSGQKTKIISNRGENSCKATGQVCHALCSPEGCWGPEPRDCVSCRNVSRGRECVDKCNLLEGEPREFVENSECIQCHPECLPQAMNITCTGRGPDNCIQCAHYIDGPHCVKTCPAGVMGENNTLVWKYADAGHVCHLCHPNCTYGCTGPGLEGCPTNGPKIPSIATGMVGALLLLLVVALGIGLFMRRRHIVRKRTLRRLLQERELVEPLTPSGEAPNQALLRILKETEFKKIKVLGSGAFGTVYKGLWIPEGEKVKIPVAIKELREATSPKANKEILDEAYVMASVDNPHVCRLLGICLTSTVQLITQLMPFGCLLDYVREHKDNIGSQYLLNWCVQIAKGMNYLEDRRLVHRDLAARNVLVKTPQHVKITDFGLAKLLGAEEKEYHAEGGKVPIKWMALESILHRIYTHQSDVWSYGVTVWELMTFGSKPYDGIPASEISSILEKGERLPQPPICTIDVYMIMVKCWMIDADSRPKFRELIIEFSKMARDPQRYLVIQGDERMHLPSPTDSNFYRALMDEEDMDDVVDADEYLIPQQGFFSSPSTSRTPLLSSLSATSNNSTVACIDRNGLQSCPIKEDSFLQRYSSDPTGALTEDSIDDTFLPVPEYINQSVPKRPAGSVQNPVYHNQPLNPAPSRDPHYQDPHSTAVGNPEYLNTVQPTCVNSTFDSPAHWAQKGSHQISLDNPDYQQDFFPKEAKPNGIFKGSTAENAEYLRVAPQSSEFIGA
T2 sequence (Q06187 whole entry C481S): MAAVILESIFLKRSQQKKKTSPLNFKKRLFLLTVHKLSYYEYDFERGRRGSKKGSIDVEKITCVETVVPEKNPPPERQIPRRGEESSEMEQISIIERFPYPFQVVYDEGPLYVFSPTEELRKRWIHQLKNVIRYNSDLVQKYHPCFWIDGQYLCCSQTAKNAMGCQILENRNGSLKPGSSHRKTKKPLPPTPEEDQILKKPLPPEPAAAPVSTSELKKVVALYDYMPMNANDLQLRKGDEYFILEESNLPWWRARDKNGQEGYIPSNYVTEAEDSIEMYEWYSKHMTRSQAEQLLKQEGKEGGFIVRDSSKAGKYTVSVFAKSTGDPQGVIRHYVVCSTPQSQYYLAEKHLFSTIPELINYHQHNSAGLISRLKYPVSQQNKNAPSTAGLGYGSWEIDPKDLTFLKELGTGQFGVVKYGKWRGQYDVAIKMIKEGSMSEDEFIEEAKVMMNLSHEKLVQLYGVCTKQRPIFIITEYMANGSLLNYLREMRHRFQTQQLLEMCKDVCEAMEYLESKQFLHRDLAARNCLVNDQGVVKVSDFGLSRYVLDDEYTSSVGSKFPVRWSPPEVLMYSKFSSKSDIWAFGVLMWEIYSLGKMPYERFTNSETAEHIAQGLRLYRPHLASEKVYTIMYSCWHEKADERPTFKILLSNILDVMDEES
T3 sequence (Q06187 whole entry): as the sequence (Q06187 whole entry C481S) above, with S481C counted along it

SMILES	IC50 (Recombinant EGFR)	IC50 [1]	IC50 [2, 4]	IC50 [3]	IC50 ([2]; OCI-Ly10 cells, 72 h compound treatment, Resazurin)	IC50 ([2]; Homo sapiens, OCI-Ly10, 72 h)
COc1ccccc1C(=O)NCc1ccc(-c2nn(C3CCOC(C)C3)c(N)c2C(N)=O)cc1 (mixture of isomers) [Example 85, 5-amino-3-[4-[[(2-methoxybenzoyl)amino]methyl]phenyl]-1-(2-methyltetrahydropyran-4-yl)pyrazole-4-carboxamide]	100 to 1000 nM	< 10 nM	10 to 100 nM	< 10 nM		
COc1ccccc1C(=O)NCc1ccc(-c2nn([C@H]3CCOC3)c(N)c2C(N)=O)cc1 [Example 83a, 5-amino-3-[4-[[(2-methoxybenzoyl)amino]methyl]phenyl]-1-[(3S)-tetrahydrofuran-3-yl]pyrazole-4-carboxamide]	1000 to 10000 nM	< 10 nM	100 to 1000 nM	< 10 nM		
COc1ccccc1C(=O)NCc1cc(F)c(-c2nn(C3CCOC3)c(N)c2C(N)=O)cc1F (centres unmarked) [Example 152, 5-amino-3-[2,5-difluoro-4-[[(2-methoxybenzoyl)amino]methyl]phenyl]-1-tetrahydrofuran-3-yl-pyrazole-4-carboxamide]	> 10000 nM	10 to 100 nM	100 to 1000 nM	10 to 100 nM		
COc1ccc(F)cc1C(=O)NCc1ccc(-c2nn(CC(C)C(F)(F)F)c(N)c2C(N)=O)cc1 (centres unmarked) [Example 176, 5-amino-3-[4-[[(5-fluoro-2-methoxy-benzoyl)amino]methyl]phenyl]-1-(3,3,3-trifluoro-2-methyl-propyl)pyrazole-4-carboxamide]	1000 to 10000 nM	< 10 nM	10 to 100 nM	< 10 nM		
COc1ccc(F)cc1C(=O)NCc1ccc(-c2nn(C(C)C(F)F)c(N)c2C(N)=O)cc1 (centres unmarked) [Example 173, 5-amino-1-(2,2-difluoro-1-methyl-ethyl)-3-[4-[[(5-fluoro-2-methoxy-benzoyl)amino]methyl]phenyl]pyrazole-4-carboxamide]	1000 to 10000 nM	< 10 nM	10 to 100 nM	< 10 nM		
COc1ccccc1C(=O)NCc1ccc(-c2nn(C3CC(=O)c4ccccc43)c(N)c2C(N)=O)cc1 (centres unmarked) [Example 59, 5-amino-3-[4-[[(2-methoxybenzoyl)amino]methyl]phenyl]-1-(3-oxoindan-1-yl)pyrazole-4-carboxamide]	1000 to 10000 nM	< 10 nM	10 to 100 nM	< 10 nM		
COc1ccccc1C(=O)NCc1ccc(-c2nn(C3CCC(C)C3)c(N)c2C(N)=O)cc1 (centres unmarked) [Example 5, 5-Amino-3-[4-[[(2-methoxybenzoyl)amino]methyl]phenyl]-1-(3-methylcyclopentyl)pyrazole-4-carboxamide]	100 to 1000 nM	< 10 nM	10 to 100 nM	< 10 nM		
COc1ccccc1C(=O)NCc1ccc(-c2nn(CC3CCCCC3)c(N)c2C(N)=O)cc1 [Example 17, 5-amino-1-(cyclohexylmethyl)-3-[4-[[(2-methoxybenzoyl)amino]methyl]phenyl]pyrazole-4-carboxamide]	100 to 1000 nM	< 10 nM	10 to 100 nM	< 10 nM		
COc1ccccc1C(=O)NCc1ccc(-c2nn(C3CCC(OCc4ccccc4)CC3)c(N)c2C(N)=O)cc1 (mixture of isomers) [Example 28, 5-Amino-1-(4-benzyloxycyclohexyl)-3-[4-[[(2-methoxybenzoyl)amino]methyl]phenyl]pyrazole-4-carboxamide]	100 to 1000 nM	< 10 nM	10 to 100 nM	< 10 nM		
COc1ccccc1C(=O)NCc1ccc(-c2nn(C3CCC(O)CC3)c(N)c2C(N)=O)cc1 (single isomer, unassigned) [Example 34b, 5-Amino-1-(4-hydroxycyclohexyl)-3-[4-[[(2-methoxybenzoyl)amino]methyl]phenyl]pyrazole-4-carboxamide]	1000 to 10000 nM	< 10 nM	10 to 100 nM	< 10 nM		
COc1ccccc1C(=O)NCc1cc(F)c(-c2nn(C3CCCC3)c(N)c2C(N)=O)c(F)c1 [Example 140, 5-amino-1-cyclopentyl-3-[2,6-difluoro-4-[[(2-methoxybenzoyl)amino]methyl]phenyl]pyrazole-4-carboxamide]	> 10000 nM	< 10 nM	100 to 1000 nM	< 10 nM		
COc1ccccc1C(=O)NCc1ccc(-c2nn(C(C)(C)C)c(N)c2C(N)=O)cc1 [Example 3, 5-amino-1-tert-butyl-3-[4-[[(2-methoxybenzoyl)amino]methyl]phenyl]pyrazole-4-carboxamide]	100 to 1000 nM	< 10 nM	10 to 100 nM	< 10 nM		
COc1ccccc1C(=O)NCc1ccc(-c2nn(C3CCC(C(=O)N(C)C)CC3)c(N)c2C(N)=O)cc1 (single isomer, unassigned) [Example 57a, 5-amino-1-[4-(dimethylcarbamoyl)cyclohexyl]-3-[4-[[(2-methoxybenzoyl)amino]methyl]phenyl]pyrazole-4-carboxamide]	100 to 1000 nM	< 10 nM		< 10 nM	10 to 100 nM	
COc1ccc(F)cc1C(=O)NCc1cc(F)c(-c2nn(C(C)C(F)(F)F)c(N)c2C(N)=O)cc1F (centres unmarked) [Example 168, 5-amino-3-[2,5-difluoro-4-[[(5-fluoro-2-methoxy-benzoyl)amino]methyl]phenyl]-1-(2,2,2-trifluoro-1-methyl-ethyl)pyrazole-4-carboxamide]	1000 to 10000 nM	< 10 nM		10 to 100 nM		10 to 100 nM

Second part, led by results:

IC50 (Recombinant EGFR)	IC50 [1]	IC50 [2, 4]	IC50 [3]	IC50 ([2]; OCI-Ly10 cells, 72 h compound treatment, Resazurin)	SMILES	IC50 ([2]; Homo sapiens, OCI-Ly10, 72 h)
1000 to 10000 nM	< 10 nM	10 to 100 nM	< 10 nM		COc1ccccc1C(=O)NCc1ccc(-c2nn(C3CCC3)c(N)c2C(N)=O)cc1 [Example 35, 5-Amino-1-cyclobutyl-3-[4-[[(2-methoxybenzoyl)amino]methyl]phenyl]pyrazole-4-carboxamide]	
1000 to 10000 nM	< 10 nM	1000 to 10000 nM	10 to 100 nM		CNc1c(C(N)=O)c(-c2ccc(CNC(=O)c3ccccc3OC)cc2)nn1C1CCOC1 (centres unmarked) [Example 97, 3-[4-[[(2-methoxybenzoyl)amino]methyl]phenyl]-5-(methylamino)-1-tetrahydrofuran-3-yl-pyrazole-4-carboxamide]	
> 10000 nM	< 10 nM	< 10 nM	10 to 100 nM		COc1ccc(F)cc1C(=O)NCc1ccc(-c2nn(C(C3CCOCC3)C(F)(F)F)c(N)c2C(N)=O)cc1 (centres unmarked) [Example 184, 5-amino-3-[4-[[(5-fluoro-2-methoxy-benzoyl)amino]methyl]phenyl]-1-(2,2,2-trifluoro-1-tetrahydropyran-4-yl-ethyl)pyrazole-4-carboxamide]	
1000 to 10000 nM	< 10 nM	10 to 100 nM	< 10 nM		COc1ccc(F)cc1C(=O)NCc1ccc(-c2nn(C3CCN(C)CC3(F)F)c(N)c2C(N)=O)cc1 (centres unmarked) [Example 191, 5-amino-1-(3,3-difluoro-1-methyl-4-piperidyl)-3-[4-[[(5-fluoro-2-methoxy-benzoyl)amino]methyl]phenyl]pyrazole-4-carboxamide]	
> 10000 nM	< 10 nM	100 to 1000 nM	10 to 100 nM		COc1ccc(F)cc1C(=O)NCc1cc(F)c(-c2nn(C3CCOC3)c(N)c2C(N)=O)cc1F (centres unmarked) [Example 153, 5-amino-3-[2,5-difluoro-4-[[(5-fluoro-2-methoxy-benzoyl)amino]methyl]phenyl]-1-tetrahydrofuran-3-yl-pyrazole-4-carboxamide]	
> 10000 nM	< 10 nM	100 to 1000 nM	10 to 100 nM		COc1ccc(F)cc1C(=O)NCc1ccc(-c2nn(C(C)C3CCOCC3)c(N)c2C(N)=O)cc1 (centres unmarked) [Example 161, 5-amino-3-[4-[[(5-fluoro-2-methoxy-benzoyl)amino]methyl]phenyl]-1-(1-tetrahydropyran-4-ylethyl)pyrazole-4-carboxamide]	
1000 to 10000 nM	< 10 nM	10 to 100 nM	< 10 nM		COc1ccc(F)cc1C(=O)NCc1ccc(-c2nn(C(C)(C)C(F)(F)F)c(N)c2C(N)=O)cc1 [Example 189, 5-amino-3-[4-[[(5-fluoro-2-methoxy-benzoyl)amino]methyl]phenyl]-1-(2,2,2-trifluoro-1,1-dimethyl-ethyl)pyrazole-4-carboxamide]	
100 to 1000 nM	< 10 nM	10 to 100 nM	< 10 nM		COc1ccc(F)cc1C(=O)NCc1ccc(-c2nn(C3CCCC3)c(N)c2C(N)=O)cc1F [Example 76, 5-amino-1-cyclopentyl-3-[3-fluoro-4-[[(5-fluoro-2-methoxy-benzoyl)amino]methyl]phenyl]pyrazole-4-carboxamide]	
1000 to 10000 nM	< 10 nM	100 to 1000 nM	< 10 nM		COc1ccccc1C(=O)NCc1cc(F)c(-c2nn(C3CCCOC3)c(N)c2C(N)=O)cc1F (centres unmarked) [Example 151, 5-amino-3-[2,5-difluoro-4-[[(2-methoxybenzoyl)amino]methyl]phenyl]-1-tetrahydropyran-3-yl-pyrazole-4-carboxamide]	
